Columns and labels:
[1] = target: Fibroblast growth factor receptor (Homo sapiens, UniProt P22607+P11362+P22455+P21802); experiment: Inhibition of FGF-stimulated human umbilical vein endothelial cell proliferation; format: functional, cell-based
[2] = target: Vascular endothelial growth factor receptor 2 (Homo sapiens, UniProt P35968); experiment: Inhibition of human vascular endothelial growth factor receptor 2 kinase activity
[3] = target: Vascular endothelial growth factor receptor (Homo sapiens, UniProt P17948+P35916+P35968); experiment: Inhibition of VEGF-stimulated human umbilical vein endothelial cell proliferation; format: functional, cell-based
[4] = target: Fibroblast growth factor receptor 1 (Homo sapiens, UniProt P11362); experiment: Inhibition of human fibroblast growth factor receptor 1
[5] = target: Insulin-like growth factor 1 receptor (Homo sapiens, UniProt P08069); experiment: Inhibition of human insulin-like growth factor I receptor
Mus musculus [6] = experiment: Tumor growth inhibition determined after oral administration of […] mg/kg/day compound against established L2987 human lung carcinoma xenografts implanted subcutaneously in athymic mouse; format: functional; settings: read-out: TGI
[7] = target: Protein kinase C alpha type (Homo sapiens, UniProt P17252); experiment: Inhibition of human protein kinase C alpha
[8] = target: Platelet-derived growth factor receptor beta (Homo sapiens, UniProt P09619); experiment: Inhibition of human platelet-derived growth factor receptor beta
[9] = target: Cyclin-dependent kinase 2 (Homo sapiens, UniProt P24941); experiment: Inhibition of human cyclin-dependent kinase 2
[10] = Plasma level after 1 hour of oral administration of 50 mg/kg compound in mouse; format: ADME, organism-based; design: dose 50 mg/kg, route oral; settings: read-out: Plasma level
[11] = target: Receptor tyrosine-protein kinase erbB-2 (Homo sapiens, UniProt P04626); experiment: Inhibition against human HER2 kinase
Mus musculus [12] = experiment: Tumor growth inhibition determined after oral administration of 50 mg/kg/day compound against established L2987 human lung carcinoma xenografts implanted subcutaneously in athymic mouse; format: functional; settings: read-out: TGI
[13] = Plasma level after 4 hours of oral administration of 50 mg/kg compound in mouse; format: ADME, organism-based; design: dose 50 mg/kg, route oral; settings: read-out: Plasma level
Mus musculus [14] = experiment: Tumor growth inhibition determined after oral administration of 100 mg/kg/day compound against established L2987 human lung carcinoma xenografts implanted subcutaneously in athymic mouse; format: functional; settings: read-out: TGI
Mus musculus [15] = experiment: Tumor growth inhibition determined after oral administration of 60 mg/kg/day compound against established L2987 human lung carcinoma xenografts implanted subcutaneously in athymic mouse; format: functional; settings: read-out: TGI
Cytochrome P450 1A2 = target: T1, Cytochrome P450 1A2 (Homo sapiens, UniProt P05177); experiment: Inhibitory concentration against human cytochrome P450 1A2; format: ADME
T1 sequence (P05177 whole entry): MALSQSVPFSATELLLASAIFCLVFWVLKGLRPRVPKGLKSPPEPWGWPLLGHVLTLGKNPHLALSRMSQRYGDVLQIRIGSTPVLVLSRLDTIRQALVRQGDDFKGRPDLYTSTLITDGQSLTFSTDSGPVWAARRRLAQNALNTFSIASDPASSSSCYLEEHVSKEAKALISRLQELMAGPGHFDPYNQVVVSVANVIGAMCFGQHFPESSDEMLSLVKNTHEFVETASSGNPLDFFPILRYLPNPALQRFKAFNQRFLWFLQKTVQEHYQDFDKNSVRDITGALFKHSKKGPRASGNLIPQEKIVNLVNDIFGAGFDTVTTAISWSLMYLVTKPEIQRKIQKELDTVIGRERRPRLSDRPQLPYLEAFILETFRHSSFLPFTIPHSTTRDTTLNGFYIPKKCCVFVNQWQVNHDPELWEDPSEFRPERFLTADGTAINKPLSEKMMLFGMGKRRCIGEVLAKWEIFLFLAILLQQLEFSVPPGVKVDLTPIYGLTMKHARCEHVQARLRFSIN

Cytochrome P450 2C9 = Cytochrome P450 2C9 (Homo sapiens, UniProt P11712); experiment: Inhibitory concentration against human cytochrome P450 2C9; format: ADME
Cytochrome P450 3A4 = Cytochrome P450 3A4 (Homo sapiens, UniProt P08684); experiment: Inhibitory concentration against human cytochrome P450 3A4; format: ADME

Vascular endothelial growth factor receptor 2, sequence (P35968 whole entry): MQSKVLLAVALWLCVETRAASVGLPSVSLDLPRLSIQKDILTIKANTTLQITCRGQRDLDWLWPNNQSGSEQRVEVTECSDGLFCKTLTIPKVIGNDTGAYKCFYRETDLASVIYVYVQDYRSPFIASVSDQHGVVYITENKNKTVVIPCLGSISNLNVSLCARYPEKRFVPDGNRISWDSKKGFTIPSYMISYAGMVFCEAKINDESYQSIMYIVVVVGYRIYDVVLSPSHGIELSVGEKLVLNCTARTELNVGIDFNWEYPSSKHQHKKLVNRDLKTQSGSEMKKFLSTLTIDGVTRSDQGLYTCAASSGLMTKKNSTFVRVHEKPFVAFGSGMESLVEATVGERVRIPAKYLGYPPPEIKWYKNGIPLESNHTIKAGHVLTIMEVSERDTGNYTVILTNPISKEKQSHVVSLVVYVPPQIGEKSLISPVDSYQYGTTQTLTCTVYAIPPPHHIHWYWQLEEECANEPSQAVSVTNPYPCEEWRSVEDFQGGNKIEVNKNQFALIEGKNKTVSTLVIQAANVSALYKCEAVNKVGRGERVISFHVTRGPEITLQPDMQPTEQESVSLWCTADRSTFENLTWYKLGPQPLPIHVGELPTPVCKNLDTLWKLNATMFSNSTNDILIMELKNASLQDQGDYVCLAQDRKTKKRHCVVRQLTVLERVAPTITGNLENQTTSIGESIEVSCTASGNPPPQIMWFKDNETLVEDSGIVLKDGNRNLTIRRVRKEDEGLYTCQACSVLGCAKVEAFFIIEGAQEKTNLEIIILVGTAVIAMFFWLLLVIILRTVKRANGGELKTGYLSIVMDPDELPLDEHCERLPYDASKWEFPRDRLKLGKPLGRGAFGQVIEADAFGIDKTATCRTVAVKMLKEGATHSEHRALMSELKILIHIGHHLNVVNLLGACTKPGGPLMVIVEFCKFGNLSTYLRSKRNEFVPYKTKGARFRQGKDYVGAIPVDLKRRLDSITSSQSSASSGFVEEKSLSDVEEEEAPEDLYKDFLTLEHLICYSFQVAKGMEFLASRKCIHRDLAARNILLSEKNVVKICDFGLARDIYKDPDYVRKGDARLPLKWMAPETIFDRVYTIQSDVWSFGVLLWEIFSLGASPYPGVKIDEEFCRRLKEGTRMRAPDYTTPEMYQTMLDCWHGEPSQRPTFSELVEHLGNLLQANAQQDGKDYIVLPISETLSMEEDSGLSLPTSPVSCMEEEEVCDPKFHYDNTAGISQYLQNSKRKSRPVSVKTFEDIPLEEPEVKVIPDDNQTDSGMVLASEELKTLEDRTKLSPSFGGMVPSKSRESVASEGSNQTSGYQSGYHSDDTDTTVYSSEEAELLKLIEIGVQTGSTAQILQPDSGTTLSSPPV
Fibroblast growth factor receptor 1, sequence (P11362 whole entry): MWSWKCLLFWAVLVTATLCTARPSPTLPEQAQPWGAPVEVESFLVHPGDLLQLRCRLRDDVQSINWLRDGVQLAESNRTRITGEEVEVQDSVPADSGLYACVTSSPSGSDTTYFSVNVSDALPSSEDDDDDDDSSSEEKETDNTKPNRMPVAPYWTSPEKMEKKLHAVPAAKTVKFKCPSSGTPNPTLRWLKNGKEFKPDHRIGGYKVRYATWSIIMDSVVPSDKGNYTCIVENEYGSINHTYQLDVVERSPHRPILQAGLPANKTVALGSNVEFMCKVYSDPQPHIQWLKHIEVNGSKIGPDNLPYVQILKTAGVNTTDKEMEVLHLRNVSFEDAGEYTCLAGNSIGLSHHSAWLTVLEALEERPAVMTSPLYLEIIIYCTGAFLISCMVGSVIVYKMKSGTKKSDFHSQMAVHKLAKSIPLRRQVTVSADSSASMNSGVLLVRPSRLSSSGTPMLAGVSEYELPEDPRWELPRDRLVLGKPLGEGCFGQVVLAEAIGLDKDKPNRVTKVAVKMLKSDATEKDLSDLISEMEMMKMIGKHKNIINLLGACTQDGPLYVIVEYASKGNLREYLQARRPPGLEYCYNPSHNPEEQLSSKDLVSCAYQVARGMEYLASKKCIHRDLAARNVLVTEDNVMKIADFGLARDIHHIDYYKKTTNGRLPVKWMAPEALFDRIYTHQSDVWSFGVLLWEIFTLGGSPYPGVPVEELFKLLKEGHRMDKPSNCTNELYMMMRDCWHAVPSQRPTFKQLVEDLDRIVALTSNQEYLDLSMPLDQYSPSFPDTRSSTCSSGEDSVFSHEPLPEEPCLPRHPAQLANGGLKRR
Receptor tyrosine-protein kinase erbB-2, sequence (P04626 whole entry): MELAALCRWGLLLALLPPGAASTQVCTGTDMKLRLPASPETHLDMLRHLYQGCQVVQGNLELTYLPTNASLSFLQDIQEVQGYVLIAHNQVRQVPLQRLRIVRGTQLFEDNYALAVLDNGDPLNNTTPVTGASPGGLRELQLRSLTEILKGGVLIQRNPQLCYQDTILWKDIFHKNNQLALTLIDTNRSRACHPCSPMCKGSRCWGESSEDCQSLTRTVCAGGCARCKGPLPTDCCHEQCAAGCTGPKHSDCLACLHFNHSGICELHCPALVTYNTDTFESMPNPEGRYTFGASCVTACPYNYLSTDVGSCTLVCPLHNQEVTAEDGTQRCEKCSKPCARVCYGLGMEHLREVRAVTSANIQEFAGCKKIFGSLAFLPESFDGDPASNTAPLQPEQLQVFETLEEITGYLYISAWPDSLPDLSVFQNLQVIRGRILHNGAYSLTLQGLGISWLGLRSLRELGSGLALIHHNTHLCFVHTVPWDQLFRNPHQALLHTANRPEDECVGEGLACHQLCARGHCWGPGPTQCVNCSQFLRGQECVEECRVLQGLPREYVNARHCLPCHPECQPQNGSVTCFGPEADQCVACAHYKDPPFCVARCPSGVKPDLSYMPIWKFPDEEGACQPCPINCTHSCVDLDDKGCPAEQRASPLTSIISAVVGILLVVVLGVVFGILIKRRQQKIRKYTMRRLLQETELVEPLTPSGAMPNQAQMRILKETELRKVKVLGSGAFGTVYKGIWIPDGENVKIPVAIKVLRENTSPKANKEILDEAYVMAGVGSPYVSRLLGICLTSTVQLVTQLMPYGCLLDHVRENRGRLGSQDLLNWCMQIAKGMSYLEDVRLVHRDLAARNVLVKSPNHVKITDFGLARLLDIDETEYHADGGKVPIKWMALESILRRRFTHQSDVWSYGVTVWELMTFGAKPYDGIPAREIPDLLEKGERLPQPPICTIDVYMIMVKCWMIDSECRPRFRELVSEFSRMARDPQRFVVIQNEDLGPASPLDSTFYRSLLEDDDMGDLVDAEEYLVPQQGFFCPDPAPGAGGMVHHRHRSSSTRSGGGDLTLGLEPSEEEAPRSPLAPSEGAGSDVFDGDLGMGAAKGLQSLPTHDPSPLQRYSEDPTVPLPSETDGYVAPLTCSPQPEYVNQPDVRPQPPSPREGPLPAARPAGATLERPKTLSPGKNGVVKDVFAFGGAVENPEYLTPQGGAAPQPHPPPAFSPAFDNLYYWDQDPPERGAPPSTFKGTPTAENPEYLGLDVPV
Insulin-like growth factor 1 receptor, sequence (P08069 31-736 limits assumed): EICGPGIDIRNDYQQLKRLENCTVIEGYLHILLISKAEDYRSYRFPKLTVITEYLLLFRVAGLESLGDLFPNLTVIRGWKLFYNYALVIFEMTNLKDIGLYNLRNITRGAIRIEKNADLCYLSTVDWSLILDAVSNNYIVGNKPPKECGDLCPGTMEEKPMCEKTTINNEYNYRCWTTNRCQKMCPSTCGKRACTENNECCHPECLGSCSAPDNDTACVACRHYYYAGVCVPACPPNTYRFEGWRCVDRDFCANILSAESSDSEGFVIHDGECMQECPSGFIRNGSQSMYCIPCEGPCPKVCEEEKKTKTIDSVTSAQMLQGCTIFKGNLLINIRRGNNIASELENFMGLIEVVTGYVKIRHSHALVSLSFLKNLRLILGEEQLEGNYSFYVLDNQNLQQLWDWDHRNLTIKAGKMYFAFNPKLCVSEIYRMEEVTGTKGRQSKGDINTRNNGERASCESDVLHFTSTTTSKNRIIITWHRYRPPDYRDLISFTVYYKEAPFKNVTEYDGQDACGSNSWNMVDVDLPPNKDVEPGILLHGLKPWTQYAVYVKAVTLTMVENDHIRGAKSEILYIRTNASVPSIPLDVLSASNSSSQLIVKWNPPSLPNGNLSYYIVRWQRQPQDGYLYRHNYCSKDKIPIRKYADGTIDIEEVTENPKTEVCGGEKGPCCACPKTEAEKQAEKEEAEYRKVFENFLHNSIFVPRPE
Insulin-like growth factor 1 receptor, sequence (P08069 741-1367 limits assumed): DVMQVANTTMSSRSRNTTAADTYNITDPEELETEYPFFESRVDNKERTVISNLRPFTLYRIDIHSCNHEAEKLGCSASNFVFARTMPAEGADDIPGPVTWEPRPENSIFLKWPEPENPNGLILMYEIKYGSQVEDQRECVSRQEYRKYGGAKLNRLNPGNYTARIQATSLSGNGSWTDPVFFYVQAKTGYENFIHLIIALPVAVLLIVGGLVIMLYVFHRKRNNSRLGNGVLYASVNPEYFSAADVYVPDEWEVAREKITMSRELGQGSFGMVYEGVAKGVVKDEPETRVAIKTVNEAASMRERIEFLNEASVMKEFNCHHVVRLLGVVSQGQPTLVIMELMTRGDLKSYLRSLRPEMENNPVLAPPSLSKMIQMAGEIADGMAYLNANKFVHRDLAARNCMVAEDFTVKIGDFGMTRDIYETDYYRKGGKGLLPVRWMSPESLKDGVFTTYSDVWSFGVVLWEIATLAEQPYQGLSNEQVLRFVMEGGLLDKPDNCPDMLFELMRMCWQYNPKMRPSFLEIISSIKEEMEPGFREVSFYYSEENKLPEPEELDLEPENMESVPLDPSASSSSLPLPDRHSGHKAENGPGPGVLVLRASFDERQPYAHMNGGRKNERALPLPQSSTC

Row | Compound | IC50 [1] | IC50 [2] | IC50 [3] | IC50 [4] | also measured
1 | CONC(=O)c1cc(Nc2ncnn3cc(-c4nnco4)c(C(C)C)c23)c(F)cc1F | 0.054 µM | 0.077 µM | 0.091 µM | 0.16 µM | –
2 | CCOC(=O)c1cn2ncnc(Nc3cc(C(=O)NOCC4CC4)c(F)cc3F)c2c1C(C)C | – | 0.19 µM | – | – | –
3 | CCONC(=O)c1cc(Nc2ncnn3cc(C(=O)OCC)c(C(C)C)c23)c(F)cc1F | – | 0.04 µM | – | – | –
4 | CCOC(=O)c1cn2ncnc(Nc3cccc(C(=O)NOC)c3)c2c1C(C)C | – | 0.13 µM | – | – | –
5 | CONC(=O)c1cc(Nc2ncnn3cc(-c4nnc(C(F)F)o4)c(C(C)C)c23)c(F)cc1F | 0.021 µM | – | – | 0.1 µM | IC50 [5]: > 25 µM; inhibition in vivo at 150 mg/kg/day (Mus musculus [6]): 88.4%; IC50 [7]: > 50 µM; IC50 [8]: > 2 µM; IC50 [9]: > 50 µM; concentration at 1 h [10]: 187 µM; IC50 [11]: > 10 µM; inhibition in vivo at 50 mg/kg/day (Mus musculus [12]): 30%; concentration at 4 h [13]: 155 µM; inhibition in vivo at 100 mg/kg/day (Mus musculus [14]): 46.5%
6 | CONC(=O)c1cc(Nc2ncnn3cc(-c4noc(C)n4)c(C(C)C)c23)c(F)cc1F | – | 0.11 µM | – | 0.14 µM | –
7 | CONC(=O)c1cc(Nc2ncnn3cc(-c4nnc(CC(C)C)o4)c(C(C)C)c23)c(F)cc1F | 0.0066 µM | 0.023 µM | 0.0021 µM | 0.033 µM | –
8 | CONC(=O)c1cc(Nc2ncnn3cc(-c4nnc(CN(C)C)o4)c(C(C)C)c23)c(F)cc1F | – | 0.066 µM | – | 0.149 µM | –
9 | CCOC(=O)c1cn2ncnc(Nc3cc(C(=O)NOC)c(F)cc3F)c2c1C(C)C | – | 0.013 µM | – | – | –
10 | CONC(=O)c1cc(Nc2ncnn3cc(-c4nnc(C(F)(F)F)o4)c(C(C)C)c23)c(F)cc1F | 0.033 µM | 0.076 µM | 0.035 µM | 0.084 µM | –
11 | CCOC(=O)c1cn2ncnc(Nc3cc(C(=O)NOC(C)C)c(F)cc3F)c2c1C(C)C | – | 0.35 µM | – | – | –
12 | CCc1nnc(-c2cn3ncnc(Nc4cc(C(=O)NOC)c(F)cc4F)c3c2C(C)C)o1 | 0.0047 µM | 0.017 µM | 0.0018 µM | 0.028 µM | –
13 | CONC(=O)c1cc(Nc2ncnn3cc(NC(=O)OCc4ccccc4)c(C(C)C)c23)c(F)cc1F | – | 0.18 µM | – | – | –
14 | CCOC(=O)c1cn2ncnc(Nc3ccc(Br)c(C(=O)NOC)c3)c2c1C(C)C | – | 0.27 µM | – | – | –
15 | CONC(=O)c1cc(Nc2ncnn3cc(-c4nnc(C5CC5)o4)c(C(C)C)c23)c(F)cc1F | 0.0053 µM | 0.011 µM | 0.0036 µM | 0.014 µM | –
16 | CONC(=O)c1cc(Nc2ncnn3cc(-c4nnc(CS(C)(=O)=O)o4)c(C(C)C)c23)c(F)cc1F | 0.0046 µM | 0.016 µM | 0.0021 µM | 0.016 µM | concentration at 1 h [10]: 288 µM; concentration at 4 h [13]: 232 µM; inhibition in vivo at 100 mg/kg/day (Mus musculus [14]): 74.9%; inhibition in vivo at 60 mg/kg/day (Mus musculus [15]): 42.6%
17 | CONC(=O)c1cc(Nc2ncnn3cc(-c4ncc(C)o4)c(C(C)C)c23)c(F)cc1F | 0.004 µM | 0.008 µM | 0.0011 µM | 0.02 µM | IC50 (Cytochrome P450 1A2): 0.064 µM; IC50 (Cytochrome P450 2C9): 3.6 µM; IC50 (Cytochrome P450 3A4): 5.1 µM
18 | CCOC(=O)c1cn2ncnc(Nc3ccc(F)c(C(=O)NOC)c3)c2c1C(C)C | – | 0.079 µM | – | – | –
